Measurements published in patent publication US20240399142A1, “Methods Of Using Alternating Electric Fields And Checkpoint Inhibitors” (NOVOCURE GMBH, priority 2023, published 2024).

Assay: LUNAR study safety: adverse events per CTCAE version 4.03, safety population
Format: in vivo, human
[1] = Grade 3, nervous system disorders
[2] = Grade 3, renal and urinary disorders
[3] = Grade 3, respiratory, thoracic, and mediastinal disorders
[4] = Grade 3, skin and subcutaneous tissue disorders

Description: Safety and treatment data were compiled from all patients who received any study therapy and were analyzed according to the actual treatment received. Analyses were performed using SAS software, version 9.4 (SAS Institute).

CC(=O)O[C@@]12CO[C@@H]1C[C@H](O)[C@@]1(C)C(=O)[C@H](O)C3=C(C)[C@@H](OC(=O)[C@H](O)[C@@H](NC(=O)OC(C)(C)C)c4ccccc4)C[C@@](O)([C@@H](OC(=O)c4ccccc4)[C@H]21)C3(C)C [Docetaxel, docetaxel]
7 (10.3) no. (%): Arthralgia (All grades) | Vomiting (All grades) | White blood cell count decreased (All grades) | Pneumonia (Grade 3)
6 (8.8) no. (%): Headache (All grades) | Neutrophil count decreased (All grades)
3 (4.4) no. (%): Rash maculopapular (All grades) | Febrile neutropenia (Grade 3) | Leukopenia (Grade 3)
2 (2.9) no. (%): Rash (All grades) | Hyponatremia (Grade 3) | Metastases to central nervous system (Grade 3) | Neutrophil count decreased (Grade 3) | Oedema peripheral (Grade 3) | Peripheral sensorimotor neuropathy [1] | Syncope [1] | Atelectasis [3] | Dyspnoea [3] | Hypoxia [3]
0 no. (%): Dermatitis (All grades) | Pruritus (All grades) | Skin irritation (All grades) | Acute myocardial infarction (Grade 3) | Adenocarcinoma of colon (Grade 3) | Arthralgia (Grade 3) | Ascites (Grade 3) | Aspergillus infection (Grade 3) | Autoimmune colitis (Grade 3) | Back pain (Grade 3) | Blood bilirubin increased (Grade 3) | Bronchiolitis (Grade 3) | Bronchitis (Grade 3) | C-reactive protein increased (Grade 3) | Cardiac failure congestive (Grade 3) | Cardiac tamponade (Grade 3) | Cardiac ventricular thrombosis (Grade 3) | Cataract (Grade 3) | Chest pain (Grade 3) | Cholecystitis (Grade 3) | Cholelithiasis (Grade 3) | Clostridium bacteremia (Grade 3) | Coronary artery disease (Grade 3) | Decreased appetite (Grade 3) | Diarrhea (Grade 3) | Diverticulitis (Grade 3) | Encephalitis (Grade 3) | Esophagitis (Grade 3) | Euthanasia (Grade 3) | Femoral neck fracture (Grade 3) | Gastroenteritis salmonella (Grade 3) | General physical health deterioration (Grade 3) | Hematochezia (Grade 3) | Hepatic enzyme increased (Grade 3) | Hip fracture (Grade 3) | Hypercalcemia (Grade 3) | Hyperkalaemia (Grade 3) | Hypertriglyceridaemia (Grade 3) | Hypocalcaemia (Grade 3) | Hypokalemia (Grade 3) | Infection (Grade 3) | Intestinal perforation (Grade 3) | Large intestine perforation (Grade 3) | Localized oedema (Grade 3) | Lung abscess (Grade 3) | Lymphocyte count decreased (Grade 3) | Lymphopenia (Grade 3) | Malnutrition (Grade 3) | Metastases to bone (Grade 3) | Metastases to meninges (Grade 3) | Metastases to skin (Grade 3) | Mouth ulceration (Grade 3) | Multiple organ dysfunction syndrome (Grade 3) | Myalgia (Grade 3) | Nausea (Grade 3) | Neuropathy peripheral (Grade 3) | Oral candidiasis (Grade 3) | Pancreatitis (Grade 3) | Pericardial effusion (Grade 3) | Platelet count decreased (Grade 3) | Pneumonia pseudomonal (Grade 3) | Pneumonia staphylococcal (Grade 3) | Pyelonephritis (Grade 3) | Pyrexia (Grade 3) | Respiratory tract infection (Grade 3) | Septic shock (Grade 3) | Skin infection (Grade 3) | Stomatitis (Grade 3) | Subileus (Grade 3) | Thrombocytopenia (Grade 3) | Thyroiditis subacute (Grade 3) | Tumor pain (Grade 3) | Upper respiratory tract infection (Grade 3) | Urinary tract infection (Grade 3) | Urosepsis (Grade 3) | Vomiting (Grade 3) | Weight decreased (Grade 3) | Brain oedema [1] | Cauda equina syndrome [1] | Dysarthria [1] | Embolic stroke [1] | Motor dysfunction [1] | Nervous system disorder [1] | Neurotoxicity [1] | Quadriparesis [1] | Seizure [1] | Vocal cord paralysis [1] | Anxiety (Grade 3, psychiatric disorders) | Confusional state (Grade 3, psychiatric disorders) | Mental status changes (Grade 3, psychiatric disorders) | Acute kidney injury [2] | Urinary retention [2] | Acute respiratory failure [3] | Bronchial obstruction [3] | Bronchopleural fistula [3] | Cough [3] | Esophago-bronchial fistula [3] | Interstitial lung disease [3] | Pneumonia aspiration [3] | Pulmonary hemorrhage [3] | Respiratory failure [3] | Dermatitis exfoliative [4] | Pruritus [4] | Rash [4] | Rash erythematous [4] | Rash maculopapular [4] | Skin erosion [4] | Skin reaction [4] | Skin toxicity [4] | Deep vein thrombosis (Grade 3, vascular disorders) | Embolism (Grade 3, vascular disorders) | Hypertension (Grade 3, vascular disorders) | Jugular vein thrombosis (Grade 3, vascular disorders) | Peripheral arterial occlusive disease (Grade 3, vascular disorders) | Vena cava embolism (Grade 3, vascular disorders) | Acute myocardial infarction (Grade 4) | Adenocarcinoma of colon (Grade 4) | Alanine aminotransferase increased (Grade 4) | Anemia (Grade 4) | Anemia macrocytic (Grade 4) | Arthralgia (Grade 4) | Ascites (Grade 4) | Aspergillus infection (Grade 4) | Asthenia (Grade 4) | Atrial tachycardia (Grade 4) | Autoimmune colitis (Grade 4) | Back pain (Grade 4) | Blood bilirubin increased (Grade 4) | Bone pain (Grade 4) | Bronchiolitis (Grade 4) | Bronchitis (Grade 4) | C-reactive protein increased (Grade 4) | Cancer pain (Grade 4) | Cardiac failure congestive (Grade 4) | Cardiac tamponade (Grade 4) | Cardiac ventricular thrombosis (Grade 4) | Cataract (Grade 4) | Chest pain (Grade 4) | Cholangitis (Grade 4) | Cholecystitis (Grade 4) | Cholelithiasis (Grade 4) | Clostridium bacteremia (Grade 4) | Coronary artery disease (Grade 4) | Decreased appetite (Grade 4) | Dehydration (Grade 4) | Diarrhea (Grade 4) | Diverticulitis (Grade 4) | Drug hypersensitivity (Grade 4) | Encephalitis (Grade 4) | Esophagitis (Grade 4) | Euthanasia (Grade 4) | Fatigue (Grade 4) | Febrile neutropenia (Grade 4) | Femoral neck fracture (Grade 4) | Forced expiratory volume decreased (Grade 4) | Gastroenteritis norovirus (Grade 4) | Gastroenteritis salmonella (Grade 4) | General physical health deterioration (Grade 4) | Hematochezia (Grade 4) | Hepatic enzyme increased (Grade 4) | Hip fracture (Grade 4) | Hypercalcemia (Grade 4) | Hyperglycemia (Grade 4) | Hyperkalaemia (Grade 4) | Hypertriglyceridaemia (Grade 4) | Hypoalbuminemia (Grade 4) | Hypocalcaemia (Grade 4) | Hypokalemia (Grade 4) | Hyponatremia (Grade 4) | Ileus (Grade 4) | Infection (Grade 4) | Intestinal dilatation (Grade 4) | Intestinal hemorrhage (Grade 4) | Intestinal perforation (Grade 4) | Large intestine perforation (Grade 4) | Leukopenia (Grade 4) | Liver disorder (Grade 4) | Localized oedema (Grade 4) | Lung abscess (Grade 4) | Lymphocyte count decreased (Grade 4) | Lymphopenia (Grade 4) | Malignant ascites (Grade 4) | Malignant pleural effusion (Grade 4) | Malnutrition (Grade 4)
22 (32.4) no. (%): Alopecia (All grades)
10 (14.7) no. (%): Asthenia (All grades) | Constipation (All grades) | Nausea (All grades)
23 (33.8) no. (%): Any adverse event (Grade 3)
61 (89.7) no. (%): Any adverse event (All grades)
15 (22.1) no. (%): Neutropenia (All grades)
11 (16.2) no. (%): Cough (All grades) | Decreased appetite (All grades) | Pneumonia (All grades)
4 (5.9) no. (%): Back pain (All grades) | Hyponatremia (All grades) | Asthenia (Grade 3) | Fatigue (Grade 3) | Pleural effusion [3]
19 (27.9) no. (%): Anemia (All grades) | Dyspnea (All grades)
5 (7.4) no. (%): White blood cell count decreased (Grade 3)
1 (1.5) no. (%): Dysphagia (All grades) | Upper respiratory tract infection (All grades) | Alanine aminotransferase increased (Grade 3) | Anemia macrocytic (Grade 3) | Atrial tachycardia (Grade 3) | Bone pain (Grade 3) | Cancer pain (Grade 3) | Cholangitis (Grade 3) | Dehydration (Grade 3) | Drug hypersensitivity (Grade 3) | Forced expiratory volume decreased (Grade 3) | Gastroenteritis norovirus (Grade 3) | Hyperglycemia (Grade 3) | Hypoalbuminemia (Grade 3) | Ileus (Grade 3) | Intestinal dilatation (Grade 3) | Intestinal hemorrhage (Grade 3) | Liver disorder (Grade 3) | Malignant ascites (Grade 3) | Malignant pleural effusion (Grade 3) | Mucosal inflammation (Grade 3) | Muscular weakness (Grade 3) | Myocardial infarction (Grade 3) | Neck pain (Grade 3) | Neutropenia (Grade 3) | Non-cardiac chest pain (Grade 3) | Pancreatic failure (Grade 3) | Peripheral sensory (Grade 3) | Pyopneumothorax (Grade 3) | Refeeding syndrome (Grade 3) | Right ventricular failure (Grade 3) | Sepsis (Grade 3) | Hemiparesis [1] | Neurologic neglect syndrome [1] | Chronic obstructive pulmonary disease [3] | Hemoptysis [3] | Pneumonitis [3] | Pulmonary embolism [3] | Alopecia [4]
16 (23.5) no. (%): Any adverse event (Grade 4)
18 (26.5) no. (%): Fatigue (All grades)
12 (17.6) no. (%): Diarrhea (All grades)
9 (13.2) no. (%): Oedema peripheral (All grades) | Pyrexia (All grades)
8 (11.8) no. (%): Hypoalbuminemia (All grades) | Hypokalemia (All grades) | Pleural effusion (All grades) | Anemia (Grade 3)
